Test results published in patent US10874743B2, “IRAK degraders and uses thereof” (Kymera Therapeutics, Inc., priority 2017, dated 2020).

Target: T1, IRAK4 (Homo sapiens, UniProt Q9NWZ3)
T1 sequence (Q9NWZ3 1-460): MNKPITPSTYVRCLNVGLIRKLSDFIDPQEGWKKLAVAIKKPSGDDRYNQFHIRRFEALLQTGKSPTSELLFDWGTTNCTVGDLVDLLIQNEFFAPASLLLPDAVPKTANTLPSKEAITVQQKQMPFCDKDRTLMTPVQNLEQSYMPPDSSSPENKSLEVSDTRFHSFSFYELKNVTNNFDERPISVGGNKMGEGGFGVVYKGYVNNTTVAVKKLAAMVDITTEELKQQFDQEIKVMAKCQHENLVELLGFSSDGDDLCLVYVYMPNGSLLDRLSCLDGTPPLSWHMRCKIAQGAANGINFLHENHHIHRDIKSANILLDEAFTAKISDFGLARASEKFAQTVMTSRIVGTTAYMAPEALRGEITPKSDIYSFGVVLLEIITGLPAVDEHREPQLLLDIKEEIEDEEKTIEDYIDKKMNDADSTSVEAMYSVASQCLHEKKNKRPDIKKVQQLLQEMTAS
Test: OCI-LY-10 degradation assay (western blot, % IRAK4 degraded after 4 hours)
Type: cell-based
Design: endogenous in cells; host or cells: OCI-LY10
Details: OCI-LY10 cells, 4 hours; for OCI-LY10 % IRAK4 Degradation (0.01 uM): 0.01 uM compound; for OCI-LY10 % IRAK4 Degradation (0.1 uM): 0.1 uM compound; for OCI-LY10 % IRAK4 Degradation (1 uM): 1 uM compound
Summary of the method: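 OCI-LY10 cells (RPMI-1640, 20% FBS, 55 μM 2-ME) treated with compound at 0.003-10 μM final for 4 h at 37° C, then lysed in RIPA buffer. IRAK4 level read by fluorescent western blot (20-25 μg protein) and binned as % degraded: A >50%, B >20-50%, C <20%.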

Compound: NC(=O)c1nn(CCNCCOCCOCCNc2cccc3c2C(=O)N(C2CCC(=O)NC2=O)C3=O)cc1NC(=O)c1coc(-c2ccnc(NCC3CC3)c2)n1 (stereo not drawn) [I-326]
- OCI-LY10 % IRAK4 Degradation (0.01 uM): B (>20-50% degradation)
- OCI-LY10 % IRAK4 Degradation (0.1 uM): C (<20% degradation)
- OCI-LY10 % IRAK4 Degradation (1 uM): C (<20% degradation)

Compound: Cn1c(=O)n(C2CCC(=O)NC2=O)c2ccc(CCCOCCOCCNCc3ccc(-n4cc(NC(=O)c5coc(-c6ccnc(NCC(F)(F)F)c6)n5)c(C(N)=O)n4)cc3)cc21 (stereo not drawn) [I-327]
- OCI-LY10 % IRAK4 Degradation (0.01 uM): C (<20% degradation)
- OCI-LY10 % IRAK4 Degradation (0.1 uM): B (>20-50% degradation)
- OCI-LY10 % IRAK4 Degradation (1 uM): A (>50% degradation)

Compound: Cn1c(=O)n(C2CCC(=O)NC2=O)c2cccc(CCCOCCOCCNCc3ccc(-n4cc(NC(=O)c5coc(-c6ccnc(NCC(F)(F)F)c6)n5)c(C(N)=O)n4)cc3)c21 (stereo not drawn) [I-328]
- OCI-LY10 % IRAK4 Degradation (0.01 uM): A (>50% degradation)
- OCI-LY10 % IRAK4 Degradation (0.1 uM): A (>50% degradation)
- OCI-LY10 % IRAK4 Degradation (1 uM): A (>50% degradation)

Compound: O=C1CCC(N2C(=O)c3cccc(NCCOCCN4CCO[C@H](CNCc5ccc(-n6cc(NC(=O)c7coc(-c8ccnc(NCC9CC9)c8)n7)c(C(F)F)n6)cc5)C4)c3C2=O)C(=O)N1 (stereo partly drawn) [I-329]
- OCI-LY10 % IRAK4 Degradation (0.01 uM): B (>20-50% degradation)
- OCI-LY10 % IRAK4 Degradation (0.1 uM): A (>50% degradation)
- OCI-LY10 % IRAK4 Degradation (1 uM): A (>50% degradation)

Compound: O=C1CCC(N2C(=O)c3cccc(NCCOCCN4CCO[C@H](CNCc5ccc(-n6cc(NC(=O)c7coc(-c8ccnc(NCC9CC9)c8)n7)c(C(F)F)n6)cc5)C4)c3C2=O)C(=O)N1 (stereo partly drawn) [I-330]
- OCI-LY10 % IRAK4 Degradation (0.01 uM): C (<20% degradation)
- OCI-LY10 % IRAK4 Degradation (0.1 uM): A (>50% degradation)
- OCI-LY10 % IRAK4 Degradation (1 uM): A (>50% degradation)

Compound: Cn1c(=O)n(C2CCC(=O)NC2=O)c2ccc(CCCOCCOCCNCc3ccc(-n4cc(NC(=O)c5coc(-c6ccnc(NCC7CC7)c6)n5)c(C(F)F)n4)cc3)cc21 (stereo not drawn) [I-331]
- OCI-LY10 % IRAK4 Degradation (0.01 uM): C (<20% degradation)
- OCI-LY10 % IRAK4 Degradation (0.1 uM): B (>20-50% degradation)
- OCI-LY10 % IRAK4 Degradation (1 uM): C (<20% degradation)

Compound: NC(=O)c1nn(-c2ccc(C(=O)NCCCCCNCCNc3cccc4c3C(=O)N(C3CCCNC3=O)C4=O)cc2)cc1NC(=O)c1coc(-c2ccnc(NCC(F)(F)F)c2)n1 (stereo not drawn) [I-333]
- OCI-LY10 % IRAK4 Degradation (0.01 uM): C (<20% degradation)
- OCI-LY10 % IRAK4 Degradation (0.1 uM): C (<20% degradation)
- OCI-LY10 % IRAK4 Degradation (1 uM): C (<20% degradation)

Compound: O=C1CCC(N2C(=O)c3ccc(NC4CCN(CCOCCOCCNCc5ccc(-n6cc(NC(=O)c7coc(-c8ccnc(NCC9CC9)c8)n7)c(C(F)F)n6)cc5)CC4)cc3C2=O)C(=O)N1 (stereo not drawn) [I-335]
- OCI-LY10 % IRAK4 Degradation (0.01 uM): C (<20% degradation)
- OCI-LY10 % IRAK4 Degradation (0.1 uM): C (<20% degradation)
- OCI-LY10 % IRAK4 Degradation (1 uM): A (>50% degradation)

Compound: O=C1CCC(N2C(=O)c3cccc(N4CCN(CCOCCOCCNCc5ccc(-n6cc(NC(=O)c7coc(-c8ccnc(NCC9CC9)c8)n7)c(C(F)F)n6)cc5)CC4)c3C2=O)C(=O)N1 (stereo not drawn) [I-336]
- OCI-LY10 % IRAK4 Degradation (0.01 uM): C (<20% degradation)
- OCI-LY10 % IRAK4 Degradation (0.1 uM): C (<20% degradation)
- OCI-LY10 % IRAK4 Degradation (1 uM): B (>20-50% degradation)

Compound: O=C1CCC(N2C(=O)c3ccc(N4CCN(CCOCCOCCNCc5ccc(-n6cc(NC(=O)c7coc(-c8ccnc(NCC9CC9)c8)n7)c(C(F)F)n6)cc5)CC4)cc3C2=O)C(=O)N1 (stereo not drawn) [I-337]
- OCI-LY10 % IRAK4 Degradation (0.01 uM): C (<20% degradation)
- OCI-LY10 % IRAK4 Degradation (0.1 uM): A (>50% degradation)
- OCI-LY10 % IRAK4 Degradation (1 uM): A (>50% degradation)

Compound: O=C1CCC(N2C(=O)c3cccc(NC4CN(CCOCCOCCNCc5ccc(-n6cc(NC(=O)c7coc(-c8ccnc(NCC9CC9)c8)n7)c(C(F)F)n6)cc5)C4)c3C2=O)C(=O)N1 (stereo not drawn) [I-338]
- OCI-LY10 % IRAK4 Degradation (0.01 uM): C (<20% degradation)
- OCI-LY10 % IRAK4 Degradation (0.1 uM): B (>20-50% degradation)
- OCI-LY10 % IRAK4 Degradation (1 uM): B (>20-50% degradation)

Compound: O=C1CCC(N2C(=O)c3ccc(NC4CN(CCOCCOCCNCc5ccc(-n6cc(NC(=O)c7coc(-c8ccnc(NCC9CC9)c8)n7)c(C(F)F)n6)cc5)C4)cc3C2=O)C(=O)N1 (stereo not drawn) [I-339]
- OCI-LY10 % IRAK4 Degradation (0.01 uM): C (<20% degradation)
- OCI-LY10 % IRAK4 Degradation (0.1 uM): B (>20-50% degradation)
- OCI-LY10 % IRAK4 Degradation (1 uM): A (>50% degradation)

Compound: O=C1CCC(N2C(=O)c3cccc(NCc4cn(CCOCCOCCNCc5ccc(-n6cc(NC(=O)c7coc(-c8ccnc(NCC9CC9)c8)n7)c(C(F)F)n6)cc5)nn4)c3C2=O)C(=O)N1 (stereo not drawn) [I-340]
- OCI-LY10 % IRAK4 Degradation (0.01 uM): C (<20% degradation)
- OCI-LY10 % IRAK4 Degradation (0.1 uM): A (>50% degradation)
- OCI-LY10 % IRAK4 Degradation (1 uM): A (>50% degradation)

Compound: O=C1CCC(N2C(=O)c3ccc(NCc4cn(CCOCCOCCNCc5ccc(-n6cc(NC(=O)c7coc(-c8ccnc(NCC9CC9)c8)n7)c(C(F)F)n6)cc5)nn4)cc3C2=O)C(=O)N1 (stereo not drawn) [I-341]
- OCI-LY10 % IRAK4 Degradation (0.01 uM): C (<20% degradation)
- OCI-LY10 % IRAK4 Degradation (0.1 uM): A (>50% degradation)
- OCI-LY10 % IRAK4 Degradation (1 uM): A (>50% degradation)

Compound: O=C1CCC(N2C(=O)c3cccc(NCCc4cnnn4CCOCCOCCNCc4ccc(-n5cc(NC(=O)c6coc(-c7ccnc(NCC8CC8)c7)n6)c(C(F)F)n5)cc4)c3C2=O)C(=O)N1 (stereo not drawn) [I-342]
- OCI-LY10 % IRAK4 Degradation (0.01 uM): C (<20% degradation)
- OCI-LY10 % IRAK4 Degradation (0.1 uM): B (>20-50% degradation)
- OCI-LY10 % IRAK4 Degradation (1 uM): A (>50% degradation)

Compound: O=C1CCC(N2C(=O)c3ccc(NCCc4cnnn4CCOCCOCCNCc4ccc(-n5cc(NC(=O)c6coc(-c7ccnc(NCC8CC8)c7)n6)c(C(F)F)n5)cc4)cc3C2=O)C(=O)N1 (stereo not drawn) [I-343]
- OCI-LY10 % IRAK4 Degradation (0.01 uM): C (<20% degradation)
- OCI-LY10 % IRAK4 Degradation (0.1 uM): B (>20-50% degradation)
- OCI-LY10 % IRAK4 Degradation (1 uM): A (>50% degradation)

Compound: O=C1CCC(N2C(=O)c3ccc(OCc4cn(CCOCCOCCNCc5ccc(-n6cc(NC(=O)c7coc(-c8ccnc(NCC9CC9)c8)n7)c(C(F)F)n6)cc5)nn4)cc3C2=O)C(=O)N1 (stereo not drawn) [I-345]
- OCI-LY10 % IRAK4 Degradation (0.01 uM): C (<20% degradation)
- OCI-LY10 % IRAK4 Degradation (0.1 uM): A (>50% degradation)
- OCI-LY10 % IRAK4 Degradation (1 uM): A (>50% degradation)

Compound: O=C1CCC(N2C(=O)c3cccc(OCCc4cnnn4CCOCCOCCNCc4ccc(-n5cc(NC(=O)c6coc(-c7ccnc(NCC8CC8)c7)n6)c(C(F)F)n5)cc4)c3C2=O)C(=O)N1 (stereo not drawn) [I-346]
- OCI-LY10 % IRAK4 Degradation (0.01 uM): B (>20-50% degradation)
- OCI-LY10 % IRAK4 Degradation (0.1 uM): A (>50% degradation)
- OCI-LY10 % IRAK4 Degradation (1 uM): A (>50% degradation)

Compound: O=C1CCC(N2C(=O)c3ccc(OCCc4cnnn4CCOCCOCCNCc4ccc(-n5cc(NC(=O)c6coc(-c7ccnc(NCC8CC8)c7)n6)c(C(F)F)n5)cc4)cc3C2=O)C(=O)N1 (stereo not drawn) [I-347]
- OCI-LY10 % IRAK4 Degradation (0.01 uM): C (<20% degradation)
- OCI-LY10 % IRAK4 Degradation (0.1 uM): A (>50% degradation)
- OCI-LY10 % IRAK4 Degradation (1 uM): A (>50% degradation)

Compound: O=C1CCC(N2C(=O)c3cccc(NCCOCCN4CCN(CCOCCNCc5ccc(-n6cc(NC(=O)c7coc(-c8ccnc(NCC9CC9)c8)n7)c(C(F)F)n6)cc5)CC4)c3C2=O)C(=O)N1 (stereo not drawn) [I-348]
- OCI-LY10 % IRAK4 Degradation (0.01 uM): C (<20% degradation)
- OCI-LY10 % IRAK4 Degradation (0.1 uM): C (<20% degradation)
- OCI-LY10 % IRAK4 Degradation (1 uM): A (>50% degradation)

Compound: O=C1CCC(N2C(=O)c3ccc(NCCOCCN4CCN(CCOCCNCc5ccc(-n6cc(NC(=O)c7coc(-c8ccnc(NCC9CC9)c8)n7)c(C(F)F)n6)cc5)CC4)cc3C2=O)C(=O)N1 (stereo not drawn) [I-349]
- OCI-LY10 % IRAK4 Degradation (0.01 uM): C (<20% degradation)
- OCI-LY10 % IRAK4 Degradation (0.1 uM): B (>20-50% degradation)
- OCI-LY10 % IRAK4 Degradation (1 uM): A (>50% degradation)

Compound: Cn1cc(-c2nc(C(=O)Nc3cn(-c4ccc(CNCCOCCOCCNc5ccc6c(c5)C(=O)N(C5CCC(=O)NC5=O)C6=O)cc4)nc3C(F)F)co2)cn1 (stereo not drawn) [I-353]
- OCI-LY10 % IRAK4 Degradation (0.01 uM): C (<20% degradation)
- OCI-LY10 % IRAK4 Degradation (0.1 uM): C (<20% degradation)
- OCI-LY10 % IRAK4 Degradation (1 uM): C (<20% degradation)

Compound: O=C1CCC(N2C(=O)c3ccc(NCCOCCOCCNCc4ccc(-n5cc(NC(=O)c6coc(-c7ccnc(NCC8CC8)c7)n6)c(C(F)F)n5)cc4)cc3C2=O)C(=O)N1 (stereo not drawn) [I-354]
- OCI-LY10 % IRAK4 Degradation (0.01 uM): C (<20% degradation)
- OCI-LY10 % IRAK4 Degradation (0.1 uM): A (>50% degradation)
- OCI-LY10 % IRAK4 Degradation (1 uM): A (>50% degradation)
